Tested on: human breast cancer cell line (MCF-7)
Assay: MTT assay, growth inhibition of MCF-7 cells
Format: cell-based
Details: MCF7, MTT, 48 hours incubation, MCF-7, read-out: MCF-7 (IC50)
Method: (§1) To evaluate the anticancer activity of the oxindole derivatives produced and analyzed in examples 1 to 8, MTT assay was performed to confirm the growth inhibitory effect on cancer cells. More specifically, human prostate adenocarcinoma cell line (LNCaP), human breast cancer cell line (MCF-7), human ovarian cancer cell line (SKOV3), human lung cancer cell line […] and human renal adenocarcinoma cell line (786-O) were cultured in DMEM medium supplemented with 1% penicillin/streptomycin and 10% fetal bovine serum (All from Life Technologies, Grand Island, N.Y.). Cells were seeded in 96-well plates (3×10^3 cells/well) containing 100 μL of growth medium for 24 hours. After the medium was removed, 100 μL of each of the different analogues (dissolved in DMSO to 0.025% or less) was added to each well and cultured at 37° C. for 48 hours. After 48 hours of incubation, 100 μL of MTT reagent was added to each well. After incubation at 37° C. for 4 hours, the supernatant was aspirated, and the formazan crystals were dissolved in 100 μL of DMSO at 37° C. for 10 minutes with gentle stirring. Absorbance per well was measured at 540 nm using a VERSA max microplate reader (Molecular Devices Corp.). IC50 values were defined as compound concentrations that inhibited cell proliferation by 50% compared to cells treated with the highest amount of DMSO (0.025%) and were considered to be 100% viability.

Question: For `CNC(=O)CC1C(=O)N(Nc2cccc(Cl)c2C)c2c1ccc(Cl)c2C` (stereo not shown) [3e, 2-(6-Chloro-1-((3-chloro-2-methylphenyl)amino)-7-methyl-2-oxoindolin-3-yl)-N-methylacetamide], which IC50 is on record?
Answer: 20.5 µM

Question: Which IC50 does the source give for `CNC(=O)CC1C(=O)N(Nc2cccc(Br)c2C)c2c1ccc(Br)c2C` (stereo not shown) [3f, 2-(6-bromo-1-((3-bromo-2-methylphenyl)amino)-7-methyl-2-oxoindolin-3-yl)-N-methylacetamide] here?
Answer: 14.8 µM

Question: `CNC(=O)CC1C(=O)N(Nc2ccc(C)cc2C)c2c(C)cc(C)cc21` (stereo not shown) [3g, 2-(1-((2,4-dimethylphenyl)amino)-5,7-dimethyl-2-oxoindolin-3-yl)-N-methylacetamide] was tested. Which IC50 did it give?
Answer: > 50 µM

Question: With `CNC(=O)CC1C(=O)N(Nc2ccc(F)cc2C)c2c(C)cc(F)cc21` (stereo not shown) [3h, 2-(5-Fluoro-1-((4-fluoro-2-methylphenyl)amino)-7-methyl-2-oxoindolin-3-yl)-N-methylacetamide] as the compound, how does the IC50 read?
Answer: > 50 µM

Question: Which IC50 does the source give for `CNC(=O)CC1C(=O)N(Nc2ccc(Cl)cc2C)c2c(C)cc(Cl)cc21` (stereo not shown) [3i, 2-(5-Chloro-1-((4-chloro-2-methylphenyl)amino)-7-methyl-2-oxoindolin-3-yl)-N-methylacetamide] here?
Answer: > 50 µM

Question: With `CNC(=O)CC1C(=O)N(Nc2cc(Br)ccc2C)c2c(C)ccc(Br)c21` (stereo not shown) [3l, 2-(4-Bromo-1-((5-bromo-2-methylphenyl)amino)-7-methyl-2-oxoindolin-3-yl)-N-methylacetamide] as the compound, how does the IC50 read?
Answer: > 50 µM

Tested on: human lung cancer cell line (A459)
Assay: MTT assay, growth inhibition of A549 cells
Format: cell-based
Details: Homo sapiens; MTT, 48 hours incubation, A549; read-out: A549 (IC50)
Method: as §1

Question: `CNC(=O)CC1C(=O)N(Nc2cccc(Cl)c2C)c2c1ccc(Cl)c2C` (stereo not shown) [3e, 2-(6-Chloro-1-((3-chloro-2-methylphenyl)amino)-7-methyl-2-oxoindolin-3-yl)-N-methylacetamide] was tested. Which IC50 did it give?
Answer: 33.3 µM

Question: How did the IC50 turn out when `CNC(=O)CC1C(=O)N(Nc2cccc(Br)c2C)c2c1ccc(Br)c2C` (stereo not shown) [3f, 2-(6-bromo-1-((3-bromo-2-methylphenyl)amino)-7-methyl-2-oxoindolin-3-yl)-N-methylacetamide] was run?
Answer: 24 µM

Question: For `CNC(=O)CC1C(=O)N(Nc2ccc(C)cc2C)c2c(C)cc(C)cc21` (stereo not shown) [3g, 2-(1-((2,4-dimethylphenyl)amino)-5,7-dimethyl-2-oxoindolin-3-yl)-N-methylacetamide], which IC50 is on record?
Answer: > 50 µM

Question: Which IC50 does the source give for `CNC(=O)CC1C(=O)N(Nc2ccc(F)cc2C)c2c(C)cc(F)cc21` (stereo not shown) [3h, 2-(5-Fluoro-1-((4-fluoro-2-methylphenyl)amino)-7-methyl-2-oxoindolin-3-yl)-N-methylacetamide] here?
Answer: > 50 µM

Question: `CNC(=O)CC1C(=O)N(Nc2ccc(Cl)cc2C)c2c(C)cc(Cl)cc21` (stereo not shown) [3i, 2-(5-Chloro-1-((4-chloro-2-methylphenyl)amino)-7-methyl-2-oxoindolin-3-yl)-N-methylacetamide] was tested. Which IC50 did it give?
Answer: > 50 µM

Question: Which IC50 does the source give for `CNC(=O)CC1C(=O)N(Nc2cc(Br)ccc2C)c2c(C)ccc(Br)c21` (stereo not shown) [3l, 2-(4-Bromo-1-((5-bromo-2-methylphenyl)amino)-7-methyl-2-oxoindolin-3-yl)-N-methylacetamide] here?
Answer: > 50 µM

Tested on: human renal adenocarcinoma cell line (786-O)
Assay: MTT assay, growth inhibition of 786-O cells
Format: cell-based
Details: Homo sapiens, 786-0; MTT, 48 hours incubation, 786-O; read-out: 786-O (IC50)
Method: as §1

Question: For `CNC(=O)CC1C(=O)N(Nc2cccc(Cl)c2C)c2c1ccc(Cl)c2C` (stereo not shown) [3e, 2-(6-Chloro-1-((3-chloro-2-methylphenyl)amino)-7-methyl-2-oxoindolin-3-yl)-N-methylacetamide], which IC50 is on record?
Answer: 14.7 µM

Question: For `CNC(=O)CC1C(=O)N(Nc2cccc(Br)c2C)c2c1ccc(Br)c2C` (stereo not shown) [3f, 2-(6-bromo-1-((3-bromo-2-methylphenyl)amino)-7-methyl-2-oxoindolin-3-yl)-N-methylacetamide], which IC50 is on record?
Answer: 13.3 µM

Question: `CNC(=O)CC1C(=O)N(Nc2ccc(C)cc2C)c2c(C)cc(C)cc21` (stereo not shown) [3g, 2-(1-((2,4-dimethylphenyl)amino)-5,7-dimethyl-2-oxoindolin-3-yl)-N-methylacetamide] was tested. Which IC50 did it give?
Answer: > 50 µM

Question: `CNC(=O)CC1C(=O)N(Nc2ccc(F)cc2C)c2c(C)cc(F)cc21` (stereo not shown) [3h, 2-(5-Fluoro-1-((4-fluoro-2-methylphenyl)amino)-7-methyl-2-oxoindolin-3-yl)-N-methylacetamide] was tested. Which IC50 did it give?
Answer: 41.3 µM

Question: With `CNC(=O)CC1C(=O)N(Nc2ccc(Cl)cc2C)c2c(C)cc(Cl)cc21` (stereo not shown) [3i, 2-(5-Chloro-1-((4-chloro-2-methylphenyl)amino)-7-methyl-2-oxoindolin-3-yl)-N-methylacetamide] as the compound, how does the IC50 read?
Answer: 29.5 µM

Question: Which IC50 does the source give for `CNC(=O)CC1C(=O)N(Nc2cc(Br)ccc2C)c2c(C)ccc(Br)c21` (stereo not shown) [3l, 2-(4-Bromo-1-((5-bromo-2-methylphenyl)amino)-7-methyl-2-oxoindolin-3-yl)-N-methylacetamide] here?
Answer: 42.7 µM

Same assay, conditions: summary of Table 3, 786-O

Question: `CNC(=O)CC1C(=O)N(Nc2ccc(Cl)cc2C)c2c(C)cc(Cl)cc21` (stereo not shown) [3i, 2-(5-Chloro-1-((4-chloro-2-methylphenyl)amino)-7-methyl-2-oxoindolin-3-yl)-N-methylacetamide] was tested. Which “inhibitory activity in 786-O (in words)” value did it give?
Answer: excellent inhibitor activity

Tested on: all carcinomas
Assay: MTT assay, summary over all five cancer cell lines
Format: cell-based, human
Details: summary of Table 3, all five cell lines
Method: as §1

Question: How did the “inhibitory activity against all carcinomas (in words)” value turn out when `CNC(=O)CC1C(=O)N(Nc2cccc(Cl)c2C)c2c1ccc(Cl)c2C` (stereo not shown) [3e, 2-(6-Chloro-1-((3-chloro-2-methylphenyl)amino)-7-methyl-2-oxoindolin-3-yl)-N-methylacetamide] was run?
Answer: excellent

Question: How did the “inhibitory activity against all carcinomas (in words)” value turn out when `CNC(=O)CC1C(=O)N(Nc2cccc(Br)c2C)c2c1ccc(Br)c2C` (stereo not shown) [3f, 2-(6-bromo-1-((3-bromo-2-methylphenyl)amino)-7-methyl-2-oxoindolin-3-yl)-N-methylacetamide] was run?
Answer: excellent

Tested on: human ovarian cancer cell line (SKOV3)
Assay: MTT assay, growth inhibition of SKOV3 cells
Format: cell-based
Details: SK-OV-3, MTT, 48 hours incubation, SKOV3, read-out: SKOV3 (IC50)
Method: as §1

Question: How did the IC50 turn out when `CNC(=O)CC1C(=O)N(Nc2cccc(Cl)c2C)c2c1ccc(Cl)c2C` (stereo not shown) [3e, 2-(6-Chloro-1-((3-chloro-2-methylphenyl)amino)-7-methyl-2-oxoindolin-3-yl)-N-methylacetamide] was run?
Answer: 21.3 µM

Question: Which IC50 does the source give for `CNC(=O)CC1C(=O)N(Nc2cccc(Br)c2C)c2c1ccc(Br)c2C` (stereo not shown) [3f, 2-(6-bromo-1-((3-bromo-2-methylphenyl)amino)-7-methyl-2-oxoindolin-3-yl)-N-methylacetamide] here?
Answer: 16.9 µM

Question: How did the IC50 turn out when `CNC(=O)CC1C(=O)N(Nc2ccc(C)cc2C)c2c(C)cc(C)cc21` (stereo not shown) [3g, 2-(1-((2,4-dimethylphenyl)amino)-5,7-dimethyl-2-oxoindolin-3-yl)-N-methylacetamide] was run?
Answer: > 50 µM

Question: How did the IC50 turn out when `CNC(=O)CC1C(=O)N(Nc2ccc(F)cc2C)c2c(C)cc(F)cc21` (stereo not shown) [3h, 2-(5-Fluoro-1-((4-fluoro-2-methylphenyl)amino)-7-methyl-2-oxoindolin-3-yl)-N-methylacetamide] was run?
Answer: > 50 µM

Question: `CNC(=O)CC1C(=O)N(Nc2ccc(Cl)cc2C)c2c(C)cc(Cl)cc21` (stereo not shown) [3i, 2-(5-Chloro-1-((4-chloro-2-methylphenyl)amino)-7-methyl-2-oxoindolin-3-yl)-N-methylacetamide] was tested. Which IC50 did it give?
Answer: 44.5 µM

Question: How did the IC50 turn out when `CNC(=O)CC1C(=O)N(Nc2cc(Br)ccc2C)c2c(C)ccc(Br)c21` (stereo not shown) [3l, 2-(4-Bromo-1-((5-bromo-2-methylphenyl)amino)-7-methyl-2-oxoindolin-3-yl)-N-methylacetamide] was run?
Answer: > 50 µM

Tested on: human prostate adenocarcinoma cell line (LNCaP)
Assay: MTT assay, growth inhibition of LNCaP cells
Format: cell-based
Details: Homo sapiens; MTT, 48 hours incubation, LNCaP; read-out: LNCaP (IC50)
Method: as §1

Question: Which IC50 does the source give for `CNC(=O)CC1C(=O)N(Nc2cccc(Cl)c2C)c2c1ccc(Cl)c2C` (stereo not shown) [3e, 2-(6-Chloro-1-((3-chloro-2-methylphenyl)amino)-7-methyl-2-oxoindolin-3-yl)-N-methylacetamide] here?
Answer: 15.5 µM

Question: With `CNC(=O)CC1C(=O)N(Nc2cccc(Br)c2C)c2c1ccc(Br)c2C` (stereo not shown) [3f, 2-(6-bromo-1-((3-bromo-2-methylphenyl)amino)-7-methyl-2-oxoindolin-3-yl)-N-methylacetamide] as the compound, how does the IC50 read?
Answer: 12.8 µM

Question: Which IC50 does the source give for `CNC(=O)CC1C(=O)N(Nc2ccc(C)cc2C)c2c(C)cc(C)cc21` (stereo not shown) [3g, 2-(1-((2,4-dimethylphenyl)amino)-5,7-dimethyl-2-oxoindolin-3-yl)-N-methylacetamide] here?
Answer: > 50 µM

Question: For `CNC(=O)CC1C(=O)N(Nc2ccc(F)cc2C)c2c(C)cc(F)cc21` (stereo not shown) [3h, 2-(5-Fluoro-1-((4-fluoro-2-methylphenyl)amino)-7-methyl-2-oxoindolin-3-yl)-N-methylacetamide], which IC50 is on record?
Answer: 42.9 µM

Question: With `CNC(=O)CC1C(=O)N(Nc2ccc(Cl)cc2C)c2c(C)cc(Cl)cc21` (stereo not shown) [3i, 2-(5-Chloro-1-((4-chloro-2-methylphenyl)amino)-7-methyl-2-oxoindolin-3-yl)-N-methylacetamide] as the compound, how does the IC50 read?
Answer: 30.2 µM

Question: `CNC(=O)CC1C(=O)N(Nc2cc(Br)ccc2C)c2c(C)ccc(Br)c21` (stereo not shown) [3l, 2-(4-Bromo-1-((5-bromo-2-methylphenyl)amino)-7-methyl-2-oxoindolin-3-yl)-N-methylacetamide] was tested. Which IC50 did it give?
Answer: 42.4 µM

Same assay, conditions: summary of Table 3, LNCaP

Question: For `CNC(=O)CC1C(=O)N(Nc2ccc(Cl)cc2C)c2c(C)cc(Cl)cc21` (stereo not shown) [3i, 2-(5-Chloro-1-((4-chloro-2-methylphenyl)amino)-7-methyl-2-oxoindolin-3-yl)-N-methylacetamide], which “inhibitory activity in LNCaP (in words)” value is on record?
Answer: excellent inhibitor activity

— patent publication US10322999B2, “Oxindoles derivatives, preparation method thereof and pharmaceutical compositions for the prevention or treatment of cancer containing the same as an active ingredient” (RESEARCH & BUSINESS FOUNDATION SUNGKYUNKWAN UNIVERSITY, priority 2017, dated 2019)
